{"source": "ChEMBL document CHEMBL5137054", "about": "“Xyloketal B Reverses Nutritional Hepatic Steatosis, Steatohepatitis, and Liver Fibrosis through Activation of the PPARα/PGC1α Signaling Pathway” (J Nat Prod, 2022)", "key": {"Mus musculus [1]": {"system": "Mus musculus", "experiment": "Upregulation of cytochrome P450-4A10 enzyme expression in liver of HFD-induced C57BL/6J mouse model of NAFL administered intraperitoneally from week 7 to week 12 by immunoblotting analysis", "format": "functional", "conditions": "dose 20-40 mg/kg/day, route ip, time 6.0 weeks, DDE = dose-dependent effect"}, "Mus musculus [2]": {"system": "Mus musculus", "experiment": "Upregulation of long-chain specific acyl-CoA dehydrogenase gene transcriptional level in HFD-induced C57BL/6J mouse model of NAFL at 20 to 40 mg/kg/day, ip administered from week 7 to week 12 by qRT-PCR analysis", "format": "functional, organism-based", "conditions": "dose 20-40 mg/kg/day, time 6.0 weeks"}, "Mus musculus [3]": {"system": "Mus musculus", "experiment": "Upregulation of ACAA1 enzyme expression in liver of HFD-induced C57BL/6J mouse model of NAFL at 15 mg/kg/day, ip administered from week 7 to week 12 by immunoblotting analysis", "format": "functional, organism-based", "conditions": "time 6.0 weeks"}, "Mus musculus [4]": {"system": "Mus musculus", "experiment": "Upregulation of peroxisomal bifunctional enzyme gene transcriptional level in HFD-induced C57BL/6J mouse model of NAFL at 20 to 40 mg/kg/day, ip administered from week 7 to week 12 by qRT-PCR analysis", "format": "functional, organism-based", "conditions": "dose 20-40 mg/kg/day, time 6.0 weeks"}, "Mus musculus [5]": {"system": "Mus musculus", "experiment": "Antifibrotic activity against MCD-induced C57BL/6J mouse model of liver fibrosis assessed as reduction in TIMP1 level in liver administered intraperitoneally from week 3 to week 6 by immunoblotting analysis", "format": "functional, organism-based", "conditions": "dose 20-40 mg/kg, route ip, time 4.0 weeks, DDE = dose-dependent effect"}, "Mus musculus [6]": {"system": "Mus musculus", "experiment": "In vivo activation of PPARalpha/PGC1alpha pathway in HFD-induced C57BL/6J mouse model of NAFL assessed as increase in PPARalpha expression in liver administered intraperitoneally from week 7 to week 12 by immunoblotting analysis", "format": "functional, organism-based", "conditions": "dose 20-40 mg/kg/day, route ip, time 6.0 weeks, DDE = dose-dependent effect"}, "Mus musculus [7]": {"system": "Mus musculus", "experiment": "Reduction in hepatic steatosis in HFD-induced C57BL/6J mouse model of NAFL assessed as reduction in serum cholesterol level at 20 to 40 mg/kg/day, ip administered from week 7 to week 12", "format": "functional, organism-based", "conditions": "dose 20-40 mg/kg/day, time 6.0 weeks"}, "Mus musculus [8]": {"system": "Mus musculus", "experiment": "Antifibrotic activity against MCD-induced C57BL/6J mouse model of liver fibrosis assessed as reduction in MMP2 level in liver administered intraperitoneally from week 3 to week 6 by immunoblotting analysis", "format": "functional, organism-based", "conditions": "dose 20-40 mg/kg, route ip, time 4.0 weeks, DDE = dose-dependent effect"}, "[9]": {"experiment": "Toxicity in C57BL/6J mouse assessed as effect on serum cholesterol level at 40 mg/kg, ip", "format": "organism-based", "conditions": "in vivo"}, "Mus musculus [10]": {"system": "Mus musculus", "experiment": "Upregulation of peroxisomal bifunctional enzyme expression in liver of HFD-induced C57BL/6J mouse model of NAFL at 15 mg/kg/day, ip administered from week 7 to week 12 by immunoblotting analysis", "format": "functional, organism-based", "conditions": "time 6.0 weeks"}, "[11]": {"experiment": "Toxicity in C57BL/6J mouse assessed as effect on body weight at 40 mg/kg, ip", "format": "organism-based", "conditions": "in vivo"}, "Mus musculus [12]": {"system": "Mus musculus", "experiment": "Antifibrotic activity against MCD-induced C57BL/6J mouse model of liver fibrosis assessed as reduction in collagen III level in liver at 20 to 40 mg/kg, ip administered from week 3 to week 6 by sirius red staining based light microscopic analysis", "format": "functional, organism-based", "conditions": "dose 20-40 mg/kg, time 4.0 weeks"}, "Mus musculus [13]": {"system": "Mus musculus", "experiment": "Anti-inflammatory activity against MCD-induced C57BL/6J mouse model of nonalcoholic steatohepatitis assessed as downregulation of IL1beta expression in liver at 20 to 40 mg/kg/day, ip administered from week 3 to week 4 by immunoblotting analysis", "format": "functional, organism-based", "conditions": "dose 20-40 mg/kg/day, time 2.0 weeks"}, "Mus musculus [14]": {"system": "Mus musculus", "experiment": "Upregulation of Cpt1c gene transcriptional level in HFD-induced C57BL/6J mouse model of NAFL at 20 to 40 mg/kg/day, ip administered from week 7 to week 12 by qRT-PCR analysis", "format": "functional, organism-based", "conditions": "dose 20-40 mg/kg/day, time 6.0 weeks"}, "Mus musculus [15]": {"system": "Mus musculus", "experiment": "Upregulation of Cyp4a14 gene transcriptional level in HFD-induced C57BL/6J mouse model of NAFL at 20 to 40 mg/kg/day, ip administered from week 7 to week 12 by qRT-PCR analysis", "format": "functional, organism-based", "conditions": "dose 20-40 mg/kg/day, time 6.0 weeks"}, "Mus musculus [16]": {"system": "Mus musculus", "experiment": "Upregulation of peroxisomal acyl-coenzyme A oxidase-1 enzyme expression in liver of HFD-induced C57BL/6J mouse model of NAFL administered intraperitoneally from week 7 to week 12 by immunoblotting analysis", "format": "functional", "conditions": "dose 20-40 mg/kg/day, route ip, time 6.0 weeks, DDE = dose-dependent effect"}, "Mus musculus [17]": {"system": "Mus musculus", "experiment": "Reduction in hepatic steatosis in HFD-induced C57BL/6J mouse model of NAFL assessed as reduction in HFD-induced body weight gain at 20 to 40 mg/kg/day, ip administered from week 7 to week 12", "format": "functional, organism-based", "conditions": "dose 20-40 mg/kg/day, time 6.0 weeks"}, "Mus musculus [18]": {"system": "Mus musculus", "experiment": "Upregulation of Acox1 gene transcriptional level in HFD-induced C57BL/6J mouse model of NAFL at 20 to 40 mg/kg/day, ip administered from week 7 to week 12 by qRT-PCR analysis", "format": "functional, organism-based", "conditions": "dose 20-40 mg/kg/day, time 6.0 weeks"}, "Mus musculus [19]": {"system": "Mus musculus", "experiment": "Anti-inflammatory activity against MCD-induced C57BL/6J mouse model of nonalcoholic steatohepatitis assessed as downregulation of COX-2 expression in liver at 20 to 40 mg/kg/day, ip administered from week 3 to week 4 by immunoblotting analysis", "format": "functional, organism-based", "conditions": "dose 20-40 mg/kg/day, time 2.0 weeks"}, "Mus musculus [20]": {"system": "Mus musculus", "experiment": "Upregulation of ACAA1 enzyme expression in liver of HFD-induced C57BL/6J mouse model of NAFL administered intraperitoneally from week 7 to week 12 by immunoblotting analysis", "format": "functional", "conditions": "dose 20-40 mg/kg/day, route ip, time 6.0 weeks, DDE = dose-dependent effect"}, "[21]": {"experiment": "Toxicity in C57BL/6J mouse assessed as effect on serum ApoE level at 40 mg/kg, ip", "format": "organism-based", "conditions": "in vivo"}, "HepG2": {"system": "HepG2", "experiment": "Inhibition of FFA-induced lipid accumulation in human HepG2 cells incubated for 24 hrs by Oil Red O staining based spectrophotometric analysis", "format": "functional, cell-based", "conditions": "dose 50-100 µM, DDE = dose-dependent effect"}, "Mus musculus [22]": {"system": "Mus musculus", "experiment": "Upregulation of Cpt1a gene transcriptional level in HFD-induced C57BL/6J mouse model of NAFL at 20 to 40 mg/kg/day, ip administered from week 7 to week 12 by qRT-PCR analysis", "format": "functional, organism-based", "conditions": "dose 20-40 mg/kg/day, time 6.0 weeks"}, "[23]": {"experiment": "Toxicity in C57BL/6J mouse assessed as effect on relative liver weight at 40 mg/kg, ip", "format": "organism-based", "conditions": "in vivo"}, "[24]": {"experiment": "Toxicity in C57BL/6J mouse assessed as effect on serum LDL level at 40 mg/kg, ip", "format": "organism-based", "conditions": "in vivo"}, "Mus musculus [25]": {"system": "Mus musculus", "experiment": "Upregulation of carnitine O-palmitoyltransferase-1B enzyme expression in liver of HFD-induced C57BL/6J mouse model of NAFL administered intraperitoneally from week 7 to week 12 by immunoblotting analysis", "format": "functional", "conditions": "dose 20-40 mg/kg/day, route ip, time 6.0 weeks, DDE = dose-dependent effect"}, "Mus musculus [26]": {"system": "Mus musculus", "experiment": "Anti-inflammatory activity against MCD-induced C57BL/6J mouse model of nonalcoholic steatohepatitis assessed as downregulation of interleukin 6 expression in liver at 20 to 40 mg/kg/day, ip administered from week 3 to week 4 by immunoblotting analysis analysis", "format": "functional, organism-based", "conditions": "dose 20-40 mg/kg/day, time 2.0 weeks"}, "Mus musculus [27]": {"system": "Mus musculus", "experiment": "Antifibrotic activity against MCD-induced C57BL/6J mouse model of liver fibrosis assessed as reduction in alphaSMA level in liver at 20 to 40 mg/kg, ip administered from week 3 to week 6 by […]", "format": "functional, organism-based", "conditions": "dose 20-40 mg/kg, time 4.0 weeks"}, "[28]": {"experiment": "Toxicity in C57BL/6J mouse assessed as effect on serum glucose level at 40 mg/kg, ip", "format": "organism-based", "conditions": "in vivo"}, "Mus musculus [29]": {"system": "Mus musculus", "experiment": "Upregulation of Cpt1b gene transcriptional level in HFD-induced C57BL/6J mouse model of NAFL at 20 to 40 mg/kg/day, ip administered from week 7 to week 12 by qRT-PCR analysis", "format": "functional, organism-based", "conditions": "dose 20-40 mg/kg/day, time 6.0 weeks"}, "Mus musculus [30]": {"system": "Mus musculus", "experiment": "Reduction in hepatic steatosis in HFD-induced C57BL/6J mouse model of NAFL assessed as reduction in serum glucose level at 20 to 40 mg/kg/day, ip administered from week 7 to week 12", "format": "functional, organism-based", "conditions": "dose 20-40 mg/kg/day, time 6.0 weeks"}}, "note": "Activity calls are given as the source filed them. No cut-off for these calls is given here.", "data": [{"smiles": "C[C@H]1CO[C@]2(C)Oc3cc(O)c4c(c3C[C@H]12)O[C@@]1(C)OC[C@H](C)[C@H]1C4", "values": [{"measurement": "Activity", "setting": "Mus musculus [1]", "value": "Dde"}, {"measurement": "Activity", "setting": "Mus musculus [2]", "value": "Active"}, {"measurement": "Activity", "setting": "Mus musculus [3]", "value": "Active"}, {"measurement": "Activity", "setting": "Mus musculus [4]", "value": "Active"}, {"measurement": "Activity", "setting": "Mus musculus [5]", "value": "Dde"}, {"measurement": "Activity", "setting": "Mus musculus [6]", "value": "Dde"}, {"measurement": "Activity", "setting": "Mus musculus [7]", "value": "Active"}, {"measurement": "Activity", "setting": "Mus musculus [8]", "value": "Dde"}, {"measurement": "Activity", "setting": "[9]", "value": "Non-Toxic"}, {"measurement": "Activity", "setting": "Mus musculus [10]", "value": "Active"}, {"measurement": "Activity", "setting": "[11]", "value": "Non-Toxic"}, {"measurement": "Activity", "setting": "Mus musculus [12]", "value": "Active"}, {"measurement": "Activity", "setting": "Mus musculus [13]", "value": "Active"}, {"measurement": "Activity", "setting": "Mus musculus [14]", "value": "Active"}, {"measurement": "Activity", "setting": "Mus musculus [15]", "value": "Active"}, {"measurement": "Activity", "setting": "Mus musculus [16]", "value": "Dde"}, {"measurement": "Activity", "setting": "Mus musculus [17]", "value": "Active"}, {"measurement": "Activity", "setting": "Mus musculus [18]", "value": "Active"}, {"measurement": "Activity", "setting": "Mus musculus [19]", "value": "Active"}, {"measurement": "Activity", "setting": "Mus musculus [20]", "value": "Dde"}, {"measurement": "Activity", "setting": "[21]", "value": "Non-Toxic"}, {"measurement": "inhibition", "setting": "HepG2", "value": "Dde"}, {"measurement": "Activity", "setting": "Mus musculus [22]", "value": "Active"}, {"measurement": "Activity", "setting": "[23]", "value": "Non-Toxic"}, {"measurement": "Activity", "setting": "[24]", "value": "Non-Toxic"}, {"measurement": "Activity", "setting": "Mus musculus [25]", "value": "Dde"}, {"measurement": "Activity", "setting": "Mus musculus [26]", "value": "Active"}, {"measurement": "Activity", "setting": "Mus musculus [27]", "value": "Active"}, {"measurement": "Activity", "setting": "[28]", "value": "Non-Toxic"}, {"measurement": "Activity", "setting": "Mus musculus [29]", "value": "Active"}, {"measurement": "Activity", "setting": "Mus musculus [30]", "value": "Active"}]}]}
